# Key:
# Assay in all cases: relative viability (nuclei count vs DMSO), 5 days (fraction); higher = more cells survive
# PC-14 = system: PC-14
# How it was run: (§1)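 For relative viability, nuclei counts in treated wells were divided by those in vehicle wells. Lung cancer cell lines had been pin-tool dosed in 1536-well plates the day after seeding and cultured for 5 days, then fixed and stained in one step (final 0.05% Triton X-100, 1% formaldehyde, 1 ug/ml Hoechst) and imaged at 4×. Doses were one drug alone or a fixed anchor-drug dose plus five library-drug doses (not always all listed) in √10 steps, and values are duplicate-plate medians.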
# NCI-H23 = system: NCI-H23
# How it was run: as §1
# NCI-H2347 = system: NCI-H2347
# How it was run: as §1
# NCI-H2087 = system: NCI-H2087
# How it was run: as §1
# NCI-H1666 = system: NCI-H1666
# How it was run: as §1
# 201T = system: 201T
# How it was run: as §1
# LCLC-97TM1 = system: LCLC-97TM1
# How it was run: as §1
# NCI-H650 = system: NCI-H650
# How it was run: as §1
# LC-2-ad = system: LC-2-ad
# How it was run: as §1
# NCI-H2126 = system: NCI-H2126
# How it was run: as §1
# NCI-H520 = system: NCI-H520
# How it was run: as §1
# ChaGo-K-1 = system: ChaGo-K-1
# How it was run: as §1
# NCI-H647 = system: NCI-H647
# How it was run: as §1
# EPLC-272H = system: EPLC-272H
# How it was run: as §1
# HCC-78 = system: HCC-78
# How it was run: as §1
# NCI-H661 = system: NCI-H661
# How it was run: as §1
# HCC-827 = system: HCC-827
# How it was run: as §1
# RERF-LC-KJ = system: RERF-LC-KJ
# How it was run: as §1
# NCI-H1915 = system: NCI-H1915
# How it was run: as §1
# H3255 = system: H3255
# How it was run: as §1
# NCI-H2405 = system: NCI-H2405
# How it was run: as §1
# COR-L 105 = system: COR-L 105
# How it was run: as §1
structure (smiles),measurement,setting,value
O=c1cc(N2CCOCC2)oc2c(-c3cccc4c3sc3ccccc34)cccc12 + Cc1nc(Nc2ncc(C(=O)Nc3c(C)cccc3Cl)s2)cc(N2CCN(CCO)CC2)n1 [Dasatinib] (partner 0.075 µM),relative viability,PC-14; first compound 0.01 µM,0.237
same,relative viability,PC-14; first compound 0.03162 µM,0.267
same,relative viability,PC-14; first compound 0.1 µM,0.276
same,relative viability,PC-14; first compound 0.3162 µM,0.257
same,relative viability,PC-14; first compound 1 µM,0.237
same,relative viability,NCI-H23; first compound 0.01 µM,0.828
same,relative viability,NCI-H23; first compound 0.03162 µM,0.911
same,relative viability,NCI-H23; first compound 0.3162 µM,0.815
same,relative viability,NCI-H23; first compound 1 µM,0.857
same,relative viability,NCI-H2347; first compound 0.01 µM,0.316
same,relative viability,NCI-H2347; first compound 0.03162 µM,0.284
same,relative viability,NCI-H2347; first compound 0.1 µM,0.265
same,relative viability,NCI-H2347; first compound 0.3162 µM,0.315
same,relative viability,NCI-H2347; first compound 1 µM,0.283
same,relative viability,NCI-H2087; first compound 0.01 µM,0.989
same,relative viability,NCI-H2087; first compound 0.03162 µM,1.02
same,relative viability,NCI-H2087; first compound 0.1 µM,0.917
same,relative viability,NCI-H2087; first compound 0.3162 µM,0.89
same,relative viability,NCI-H2087; first compound 1 µM,0.887
same,relative viability,NCI-H1666; first compound 0.01 µM,0.775
same,relative viability,NCI-H1666; first compound 0.03162 µM,0.787
same,relative viability,NCI-H1666; first compound 0.1 µM,0.755
same,relative viability,NCI-H1666; first compound 0.3162 µM,0.809
same,relative viability,NCI-H1666; first compound 1 µM,0.754
same,relative viability,201T; first compound 0.01 µM,0.592
same,relative viability,201T; first compound 0.03162 µM,0.592
same,relative viability,201T; first compound 0.1 µM,0.596
same,relative viability,201T; first compound 0.3162 µM,0.505
same,relative viability,201T; first compound 1 µM,0.596
same,relative viability,LCLC-97TM1; first compound 0.01 µM,0.904
same,relative viability,LCLC-97TM1; first compound 0.03162 µM,0.86
same,relative viability,LCLC-97TM1; first compound 0.1 µM,0.788
same,relative viability,LCLC-97TM1; first compound 0.3162 µM,0.917
same,relative viability,LCLC-97TM1; first compound 1 µM,0.898
same,relative viability,NCI-H650; first compound 0.03162 µM,0.493
same,relative viability,NCI-H650; first compound 0.1 µM,0.314
same,relative viability,NCI-H650; first compound 0.3162 µM,0.512
same,relative viability,NCI-H650; first compound 1 µM,0.405
same,relative viability,LC-2-ad; first compound 0.01 µM,0.536
same,relative viability,LC-2-ad; first compound 0.03162 µM,0.688
same,relative viability,LC-2-ad; first compound 0.1 µM,0.775
same,relative viability,LC-2-ad; first compound 0.3162 µM,0.578
same,relative viability,LC-2-ad; first compound 1 µM,0.527
same,relative viability,NCI-H2126; first compound 0.01 µM,0.66
same,relative viability,NCI-H2126; first compound 0.03162 µM,0.631
same,relative viability,NCI-H2126; first compound 0.1 µM,0.609
same,relative viability,NCI-H2126; first compound 0.3162 µM,0.611
same,relative viability,NCI-H2126; first compound 1 µM,0.533
same,relative viability,NCI-H520; first compound 0.01 µM,0.184
same,relative viability,NCI-H520; first compound 0.03162 µM,0.201
same,relative viability,NCI-H520; first compound 0.1 µM,0.231
same,relative viability,NCI-H520; first compound 0.3162 µM,0.168
same,relative viability,NCI-H520; first compound 1 µM,0.203
same,relative viability,ChaGo-K-1; first compound 0.01 µM,0.402
same,relative viability,ChaGo-K-1; first compound 0.03162 µM,0.641
same,relative viability,ChaGo-K-1; first compound 0.1 µM,0.517
same,relative viability,ChaGo-K-1; first compound 0.3162 µM,0.609
same,relative viability,ChaGo-K-1; first compound 1 µM,0.73
same,relative viability,NCI-H647; first compound 0.01 µM,0.239
same,relative viability,NCI-H647; first compound 0.03162 µM,0.18
same,relative viability,NCI-H647; first compound 0.1 µM,0.0909
same,relative viability,NCI-H647; first compound 0.3162 µM,0.224
same,relative viability,NCI-H647; first compound 1 µM,0.211
same,relative viability,EPLC-272H; first compound 0.01 µM,0.445
same,relative viability,EPLC-272H; first compound 0.03162 µM,0.424
same,relative viability,EPLC-272H; first compound 0.3162 µM,0.339
same,relative viability,EPLC-272H; first compound 1 µM,0.263
same,relative viability,HCC-78; first compound 0.01 µM,0.353
same,relative viability,HCC-78; first compound 0.03162 µM,0.363
same,relative viability,HCC-78; first compound 0.1 µM,0.275
same,relative viability,HCC-78; first compound 0.3162 µM,0.292
same,relative viability,HCC-78; first compound 1 µM,0.32
same,relative viability,NCI-H661; first compound 0.01 µM,0.764
same,relative viability,NCI-H661; first compound 0.03162 µM,0.869
same,relative viability,NCI-H661; first compound 0.1 µM,0.889
same,relative viability,NCI-H661; first compound 0.3162 µM,0.993
same,relative viability,NCI-H661; first compound 1 µM,0.842
same,relative viability,HCC-827; first compound 0.01 µM,0.338
same,relative viability,HCC-827; first compound 0.03162 µM,0.293
same,relative viability,HCC-827; first compound 0.1 µM,0.323
same,relative viability,HCC-827; first compound 0.3162 µM,0.283
same,relative viability,HCC-827; first compound 1 µM,0.328
same,relative viability,RERF-LC-KJ; first compound 0.01 µM,0.85
same,relative viability,RERF-LC-KJ; first compound 0.03162 µM,0.918
same,relative viability,RERF-LC-KJ; first compound 0.1 µM,0.934
same,relative viability,RERF-LC-KJ; first compound 0.3162 µM,0.769
same,relative viability,RERF-LC-KJ; first compound 1 µM,0.818
same,relative viability,NCI-H1915; first compound 0.01 µM,0.33
same,relative viability,NCI-H1915; first compound 0.03162 µM,0.334
same,relative viability,NCI-H1915; first compound 0.1 µM,0.314
same,relative viability,NCI-H1915; first compound 0.3162 µM,0.321
same,relative viability,NCI-H1915; first compound 1 µM,0.316
same,relative viability,H3255; first compound 0.01 µM,0.348
same,relative viability,H3255; first compound 0.03162 µM,0.338
same,relative viability,H3255; first compound 0.1 µM,0.337
same,relative viability,H3255; first compound 0.3162 µM,0.379
same,relative viability,H3255; first compound 1 µM,0.345
same,relative viability,NCI-H2405; first compound 0.01 µM,0.188
same,relative viability,NCI-H2405; first compound 0.03162 µM,0.224
same,relative viability,NCI-H2405; first compound 0.1 µM,0.201
same,relative viability,NCI-H2405; first compound 0.3162 µM,0.238
same,relative viability,NCI-H2405; first compound 1 µM,0.196
same,relative viability,COR-L 105; first compound 0.01 µM,0.316
same,relative viability,COR-L 105; first compound 0.03162 µM,0.327
same,relative viability,COR-L 105; first compound 0.1 µM,0.314
same,relative viability,COR-L 105; first compound 0.3162 µM,0.372
same,relative viability,COR-L 105; first compound 1 µM,0.304

# — the supplement of paper PMC10307832
